In patent US9447187B2, “Use of an anti-CD200 antibody for prolonging the survival of allografts” (Alexion Pharmaceuticals, Inc., priority 2011, dated 2016):
“And” between values parts separate entries of the source, which are not always exact repeats. Identical values can stand only once.

Test system: cardiac allograft (C57BL/6 to BALB/c mice)
Experiment: C57BL/6 to BALB/c fully MHC-mismatched mouse heart transplantation model (graft survival, pulsation)
Type: in vivo
Experimental: The studies described in this section examined graft survival in a C57BL/6 to BALB/c fully MHC-mismatched mouse heart transplantation model. Each experimental group included 4-6 animals. Some of the experimental groups were treated with antibodies. […] Antibody 4 is a control, murine monoclonal antibody that shares a variable region with Antibody 2. […]
An experiment was also performed to evaluate whether use of an anti-CD200 antibody can reduce the duration or amount of mycophenolate mofetil that is necessary to prolong the survival of an allograft in a recipient mammal. First, a pilot experiment was performed to determine the dose of, and duration of, mycophenolate mofetil required to prolong allograft survival in mice. As described in Example 3, these studies examined graft survival in a C57BL/6 to BALB/c fully MHC-mismatched mouse heart transplantation model. Each experimental group included five (5) animals. The three experimental groups were treated as follows:
Group 1-PE (pilot experiment): cardiac allograft-bearing mice were orally administered mycophenolate mofetil at a dose of 120 mg/kg each day of the study beginning at the time of transplant;
Group 2-PE: cardiac allograft-bearing mice were orally administered mycophenolate mofetil at a dose of 80 mg/kg each day of the study beginning at the time of transplant; and
Group 3-PE: cardiac allograft-bearing mice were orally administered FK-506 at a dose of 16 mg/kg for each day of the study beginning at the time of transplant. […]
(§1) As described in Example 3, these studies examined graft survival in a C57BL/6 to BALB/c fully MHC-mismatched mouse heart transplantation model. Each experimental group included five (5) animals. The five experimental groups were treated as follows: […]
as §1, with “The three” for “The five”, “as follows, with treatment beginning at the time of transplantation:” for “as follows:”

## COc1c(C)c2c(c(O)c1C/C=C(\C)CCC(=O)OCCN1CCOCC1)C(=O)OC2 [mycophenolate mofetil]
Mycophenolate mofetil alone, 80 mg/kg orally each day of the study (pilot experiment), 80 mg/kg
  Individual Survival: 18 days and 19 days and 20 days and 22 days (2×)
Mycophenolate mofetil alone, 80 mg/kg orally each day of the study (pilot experiment), listed as MMF, 80 mg/kg
  Mean Survival: approximately 20.2 days
Mycophenolate mofetil alone, 120 mg/kg orally each day of the study (pilot experiment), 120 mg/kg
  Individual Survival: 20 days and 21 days and 22 days and 23 days and 25 days

## C=CC[C@@H]1/C=C(\C)C[C@H](C)C[C@H](OC)[C@H]2O[C@@](O)(C(=O)C(=O)N3CCCC[C@H]3C(=O)O[C@H](/C(C)=C/[C@@H]3CC[C@@H](O)[C@H](OC)C3)[C@H](C)[C@@H](O)CC1=O)[C@H](C)C[C@@H]2OC [FK-506, tacrolimus]
FK-506 alone, 16 mg/kg orally each day of the study, 16 mg/kg
  Individual Survival: 23 days and 25 days (2×) and 26 days and 27 days
